Measurements: PubChem BioAssay (NCI)
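Tested at 5 concentrations; 48 h exposure; 96-well plates; endpoints linearly interpolated, else capped at highest concentration. GI50 marks 50% less growth. Definition used: TGI = concentration required for complete inhibition of growth.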

Experiments:
Assay in all cases: growth of human tumour cells (NCI), 48 h
SF-539 CNS = system: SF-539 CNS
UACC-62 melanoma = system: UACC-62 melanoma
SK-MEL-2 melanoma = system: SK-MEL-2 melanoma
CCRF-CEM leukemia = system: CCRF-CEM leukemia
LOX IMVI melanoma = system: LOX IMVI melanoma
EKVX NSCLC = system: EKVX NSCLC
SNB-19 CNS = system: SNB-19 CNS
CAKI-1 renal = system: CAKI-1 renal
NCI-H226 lung = system: NCI-H226 lung

Row | Structure (SMILES) | TGI (SF-539 CNS) | TGI (UACC-62 melanoma) | TGI (SK-MEL-2 melanoma) | TGI (CCRF-CEM leukemia) | TGI (LOX IMVI melanoma) | TGI (EKVX NSCLC) | TGI (SNB-19 CNS) | TGI (CAKI-1 renal) | TGI (NCI-H226 lung) | GI50 (SF-539 CNS) | GI50 (UACC-62 melanoma) | GI50 (CAKI-1 renal) | GI50 (NCI-H226 lung) | GI50 (SK-MEL-2 melanoma) | GI50 (LOX IMVI melanoma) | GI50 (EKVX NSCLC) | GI50 (SNB-19 CNS) | GI50 (CCRF-CEM leukemia)
1 | O=C1/C(=C/c2ccccc2)CN(C(=O)Oc2ccccc2)C/C1=C\c1ccccc1 | 22.3 µM | > 100 µM | 65.5 µM | 23.9 µM | 29.9 µM | > 100 µM | 40.9 µM |  |  |  |  |  |  |  |  |  |  | 
2 | CCc1cc2c(c3[nH]ccc13)[C@@H](C)C[C@H]2C |  | 32 µM |  | 43.4 µM | 25.3 µM | 44.6 µM |  | 34.7 µM | 31.8 µM |  |  |  |  |  |  |  |  | 
3 | Cc1cccc2c1C(=O)OC2(c1cccc2ccccc12)c1cccc2ccccc12 |  | > 100 µM | > 100 µM | > 100 µM | > 100 µM | > 100 µM | > 100 µM | > 100 µM | > 100 µM |  |  |  |  |  |  |  |  | 
4 | C=CCN1C(=O)C/C(=C2/CCC(=O)N2CC=C)C1=O | > 100 µM | > 100 µM | > 100 µM | > 100 µM | > 100 µM | > 100 µM | > 100 µM | > 100 µM | > 100 µM |  |  |  |  |  |  |  |  | 
5 | CCC[CH2][Sn]1([CH2]CCC)[O]N=Cc2ccccc2[O]1 | 2.43 µM | 1.7 µM | 1.07 µM |  | 1.35 µM | 2.39 µM | 2.33 µM | 1.08 µM | 3.49 µM | 1.17 µM | 0.413 µM | 0.322 µM | 1.93 µM | 0.317 µM | 0.377 µM | 1.11 µM | 1.09 µM | 
6 | C/C(=N/OCCC(=O)O)C1CC1 | > 100 µM | > 100 µM | > 100 µM | > 100 µM | > 100 µM | > 100 µM | > 100 µM | > 100 µM | > 100 µM |  |  |  |  |  |  |  |  | 
7 | Cc1ccc(S(=O)(=O)N/N=C/CN2C(=O)c3ccccc3C2=O)cc1 | > 100 µM | > 100 µM | > 100 µM | > 100 µM | > 100 µM | > 100 µM | > 100 µM | > 100 µM | > 100 µM |  |  |  |  |  |  |  |  | 
8 | CC(C)S(=O)(=O)ON1C(=O)c2ccc([N+](=O)[O-])cc2C1=O | > 100 µM | > 100 µM | > 100 µM | > 100 µM |  | > 100 µM | > 100 µM | > 100 µM | > 100 µM |  |  |  |  |  |  |  |  | 
9 | O=C(O)CSc1nnc(COc2ccccc2)n1-c1ccccc1 | > 100 µM |  | > 100 µM | > 100 µM | > 100 µM |  |  |  | > 100 µM |  |  |  |  |  |  |  |  | 
10 | CC(C)C(NCc1c2ccccc2nc2ccccc12)C(=O)O (centres undefined) | > 100 µM |  | > 100 µM | 88.3 µM | > 100 µM | > 100 µM |  | > 100 µM | > 100 µM |  |  |  |  |  |  |  |  | 
11 | CC(=O)[O-].CC(=O)[O-].CC(=O)[O-].CC(=O)[O-].CO.CO.CO.[Rh+2].[Rh+2].c1ccc(-c2ccccn2)nc1 | > 100 µM | > 100 µM |  | > 100 µM | > 100 µM | > 100 µM | > 100 µM |  | > 100 µM | > 100 µM | > 100 µM |  | > 100 µM |  | > 100 µM | > 100 µM | > 100 µM | 44.6 µM
12 | COc1ccc2nc(NC(=O)C(=O)C(C#N)c3ccc(CC#N)cc3)sc2c1 (centres undefined) | > 100 µM | > 100 µM | > 100 µM | > 100 µM | > 100 µM | > 100 µM | > 100 µM | > 100 µM | > 100 µM |  |  |  |  |  |  |  |  | 
13 | O=C1NC(=Nc2ccccc2Cl)SC1C(=O)Nc1ccc([N+](=O)[O-])cc1[N+](=O)[O-] (centres undefined) | > 100 µM | > 100 µM | > 100 µM | > 100 µM |  | > 100 µM | > 100 µM | > 100 µM | > 100 µM |  |  |  |  |  |  |  |  | 
14 | CCOc1c(Cc2ccccc2)c(=O)n2c3ccccc3n3c(=O)n(C)c(=O)c1c23 | > 100 µM | > 100 µM | > 100 µM |  | > 100 µM | > 100 µM | > 100 µM | > 100 µM |  |  |  |  |  |  |  |  |  | 
15 | CC1(C)CC(=O)C=C(NC(=O)c2ccccc2)C1 | > 100 µM | > 100 µM | > 100 µM | > 100 µM | > 100 µM | > 100 µM | > 100 µM | > 100 µM |  |  |  |  |  |  |  |  |  | 
16 | CC1CC(=O)CC[C@@H]1OCc1ccccc1 (some centres undefined) | > 100 µM | > 100 µM | > 100 µM | > 100 µM | > 100 µM | > 100 µM | > 100 µM | > 100 µM |  |  |  |  |  |  |  |  |  | 
17 | CCC(C)Cn1c(C)nc2c1C(=O)c1ccccc1C2=O (centres undefined) | 59.5 µM | 27.5 µM | 76.5 µM | 96.8 µM | 66.7 µM | > 100 µM | > 100 µM |  | > 100 µM |  |  |  |  |  |  |  |  | 
18 | Nc1ccc(C(=O)N/C(=C\c2ccc3c(c2)OCO3)c2nc3ccc4c(c3[nH]2)C(=O)c2ccccc2C4=O)cc1 | > 100 µM | > 100 µM | 75.4 µM | 92.6 µM | > 100 µM | > 100 µM | > 100 µM | > 100 µM |  |  |  |  |  |  |  |  |  | 
